Biological target: T1, full length human recombinant glucocorticoid receptor (Homo sapiens, UniProt P04150)
T1 construct: It contains some partially purified full length human recombinant glucocorticoid receptor; purchased Panvera/Invitrogen PV4302
T1 sequence (P04150 1-777): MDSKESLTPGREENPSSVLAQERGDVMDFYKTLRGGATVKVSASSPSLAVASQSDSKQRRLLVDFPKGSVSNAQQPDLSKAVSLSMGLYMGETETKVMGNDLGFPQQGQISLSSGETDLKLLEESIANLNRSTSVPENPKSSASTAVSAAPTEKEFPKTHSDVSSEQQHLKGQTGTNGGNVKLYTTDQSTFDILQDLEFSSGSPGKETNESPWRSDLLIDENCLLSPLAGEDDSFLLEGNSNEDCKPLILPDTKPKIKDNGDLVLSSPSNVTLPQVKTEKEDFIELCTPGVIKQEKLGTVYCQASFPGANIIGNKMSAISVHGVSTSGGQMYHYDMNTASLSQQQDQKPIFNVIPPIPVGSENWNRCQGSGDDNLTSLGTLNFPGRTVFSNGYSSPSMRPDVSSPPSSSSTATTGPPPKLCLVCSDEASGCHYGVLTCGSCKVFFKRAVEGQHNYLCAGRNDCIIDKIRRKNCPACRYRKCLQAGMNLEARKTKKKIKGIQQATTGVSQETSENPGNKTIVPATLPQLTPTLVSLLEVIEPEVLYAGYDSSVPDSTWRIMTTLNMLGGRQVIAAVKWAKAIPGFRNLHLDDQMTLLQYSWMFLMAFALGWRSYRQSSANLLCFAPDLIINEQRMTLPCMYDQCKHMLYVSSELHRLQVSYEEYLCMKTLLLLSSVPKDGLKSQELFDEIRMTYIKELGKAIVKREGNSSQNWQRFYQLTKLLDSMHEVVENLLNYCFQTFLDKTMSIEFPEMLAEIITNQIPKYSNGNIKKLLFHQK
Assay: Glucocorticoid Receptor Binding Assay (Glucocorticoid Receptor Competitor Assay far red kit, fluorescence polarization)
Conditions: competition with fluorescent GR ligand Fluormone GS Far Red, 3 hours at 22° C., pH 7.4; Ki calculated from IC50 by Cheng-Prusoff
Outline: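 Fluorescence polarization competition with partially purified full-length human recombinant GR, stabilizing peptide and Fluormone GS Far Red tracer in screening buffer pH 7.4; 3 hours at 22° C in the dark, read at 610–660 nm. IC50 from sigmoidal fit; Ki by Cheng-Prusoff.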

Structure (SMILES) | Ki [nM]
COC(=O)c1ccc(-c2ccc([C@@H](C)[C@@](O)(c3ccc4oc(=O)n(C)c4c3)C(F)(F)F)c(Cl)c2)c(F)c1 (relative stereo) [Example 125, 3′-Chloro-2-fluoro-4′-[3,3,3-trifluoro-2-hydroxy-1-methyl-2-(3-methyl-2-oxo-2,3-dihydro-benzooxazol-5-yl)-propyl]-biphenyl-4-carboxylic acid methyl ester] | 1
C[C@H](c1ccc(-c2ccc(C(=O)O)cc2F)cc1Cl)[C@@](O)(c1ccc2oc(=O)n(C)c2c1)C(F)(F)F (relative stereo) [Example 126, 3′-Chloro-2-fluoro-4′-[3,3,3-trifluoro-2-hydroxy-1-methyl-2-(3-methyl-2-oxo-2,3-dihydro-benzooxazol-5-yl)-propyl]-biphenyl-4-carboxylic acid] | 0.5
C[C@H](c1ccc(-c2ccc(C(=O)O)cn2)cc1Cl)[C@@](O)(c1ccc2oc(=O)n(C)c2c1)C(F)(F)F (relative stereo) [Example 128, 6-{3-Chloro-4-[3,3,3-trifluoro-2-hydroxy-1-methyl-2-(3-methyl-2-oxo-2,3-dihydro-benzooxazol-5-yl)-propyl]-phenyl}-nicotinic acid] | 1.7
CCOC(=O)COc1ccc(-c2ccc([C@@H](C)[C@@](O)(c3ccc4oc(=O)n(C)c4c3)C(F)(F)F)c(Cl)c2)cc1 (relative stereo) [Example 129, {3′-Chloro-4′-[3,3,3-trifluoro-2-hydroxy-1-methyl-2-(3-methyl-2-oxo-2,3-dihydro-benzooxazol-5-yl)-propyl]-biphenyl-4-yloxy}-acetic acid ethyl ester] | 1.1
COC(=O)c1ccc(-c2ccc([C@@H](C)[C@@](O)(c3ccc4oc(=O)n(C)c4c3)C(F)(F)F)c(Cl)c2)cc1OC (relative stereo) [Example 131, 3′-Chloro-3-methoxy-4′-[3,3,3-trifluoro-2-hydroxy-1-methyl-2-(3-methyl-2-oxo-2,3-dihydro-benzooxazol-5-yl)-propyl]-biphenyl-4-carboxylic acid methyl ester] | 1.2
C[C@H](c1ccc(Br)cc1Cl)[C@@](O)(c1ccc2c(c1)oc(=O)n2C)C(F)(F)F (relative stereo) [Example 133, 6-[2-(4-Bromo-2-chloro-phenyl)-1-hydroxy-1-trifluoromethyl-propyl]-3-methyl-3H-benzooxazol-2-one] | 1.6
C[C@H](c1ccc(-c2ccc(C(=O)O)c(F)c2)cc1Cl)[C@@](O)(c1ccc2c(c1)oc(=O)n2C)C(F)(F)F (relative stereo) [Example 134, 3′-Chloro-3-fluoro-4′-[3,3,3-trifluoro-2-hydroxy-1-methyl-2-(3-methyl-2-oxo-2,3-dihydro-benzooxazol-6-yl)-propyl]-biphenyl-4-carboxylic acid] | 109
C[C@H](c1ccc(-c2ccc(C(=O)O)c(Cl)c2)cc1Cl)[C@@](O)(c1ccc2c(c1)oc(=O)n2C)C(F)(F)F (relative stereo) [Example 135, 3,3′-Dichloro-4′-[3,3,3-trifluoro-2-hydroxy-1-methyl-2-(3-methyl-2-oxo-2,3-dihydro-benzooxazol-6-yl)-propyl]-biphenyl-4-carboxylic acid] | 154
COC(=O)c1ccc(-c2ccc([C@H](C)[C@](O)(c3cc4c(cc3F)OCC(=O)N4C)C(F)(F)F)c(Cl)c2)cc1F (relative stereo) [Example 136, 3′-Chloro-3-fluoro-4′-[3,3,3-trifluoro-2-(7-fluoro-4-methyl-3-oxo-3,4-dihydro-2H-benzo[1,4]oxazin-6-yl)-2-hydroxy-1-methyl-propyl]-biphenyl-4-carboxylic acid methyl ester] | 1.3
COC(=O)c1ccc(Oc2ccc([C@H](C)[C@](O)(c3cc4c(cc3F)OCC(=O)N4C)C(F)(F)F)c(Cl)c2)cc1Cl (relative stereo) [Example 138, 2-Chloro-4-{3-chloro-4-[3,3,3-trifluoro-2-(7-fluoro-4-methyl-3-oxo-3,4-dihydro-2H-benzo[1,4]oxazin-6-yl)-2-hydroxy-1-methyl-propyl]-phenoxy}-benzoic acid methyl ester] | 0.6
COC(=O)c1ccc(Oc2ccc([C@H](C)[C@](O)(c3cc(C)c(C#N)c(C)c3)C(F)(F)F)c(Cl)c2)cc1F (relative stereo) [Example 141, 4-{3-Chloro-4-[2-(4-cyano-3,5-dimethyl-phenyl)-3,3,3-trifluoro-2-hydroxy-1-methyl-propyl]-phenoxy}-2-fluoro-benzoic acid methyl ester] | 1.8
Cc1cc([C@@](O)([C@@H](C)c2ccc(Oc3ccc(C(=O)O)c(Cl)c3)cc2Cl)C(F)(F)F)cc(C)c1C#N (relative stereo) [Example 144, 2-Chloro-4-{3-chloro-4-[2-(4-cyano-3,5-dimethyl-phenyl)-3,3,3-trifluoro-2-hydroxy-1-methyl-propyl]-phenoxy}-benzoic acid] | 2.5
C[C@H](c1ccc(-c2ccc(C(=O)O)c(F)c2)cc1Cl)[C@@](O)(c1ccc(C#N)cc1)C(F)(F)F (relative stereo) [Example 152, 3′-Chloro-4′-[2-(4-cyano-phenyl)-3,3,3-trifluoro-2-hydroxy-1-methyl-propyl]-3-fluoro-biphenyl-4-carboxylic acid] | 46.2
C[C@H](c1ccc(-c2ccc(C(=O)O)c(F)c2)cc1Cl)[C@@](O)(c1cccc(C#N)c1)C(F)(F)F (relative stereo) [Example 153, 3′-Chloro-4′-[2-(3-cyano-phenyl)-3,3,3-trifluoro-2-hydroxy-1-methyl-propyl]-3-fluoro-biphenyl-4-carboxylic acid] | 23.2
C[C@H](c1ccc(Oc2ncc(C(=O)O)cc2Cl)cc1Cl)[C@@](O)(c1ccc(C#N)cc1)C(F)(F)F (relative stereo) [Example 155, 5-Chloro-6-{3-chloro-4-[2-(4-cyano-phenyl)-3,3,3-trifluoro-2-hydroxy-1-methyl-propyl]-phenoxy}-nicotinic acid] | 8.9
C[C@H](c1ccc(Oc2ccc(C(=O)O)c(Cl)n2)cc1Cl)[C@@](O)(c1ccc2c(c1)OCC(=O)N2C)C(F)(F)F (relative stereo) [Example 158, 2-Chloro-6-{3-chloro-4-[3,3,3-trifluoro-2-hydroxy-1-methyl-2-(4-methyl-3-oxo-3,4-dihydro-2H-benzo[1,4]oxazin-7-yl)-propyl]-phenoxy}-nicotinic acid] | 2.2
C[C@@H](c1ccc(Oc2ccc(C(=O)O)c(Cl)n2)cc1Cl)[C@](O)(c1ccc2c(c1)N(C)S(=O)(=O)N2C)C(F)(F)F (relative stereo) [Example 159, 2-Chloro-6-{3-chloro-4-[2-(1,3-dimethyl-2,2-dioxo-2,3-dihydro-1H-2λ6-benzo[1,2,5]thiadiazol-5-yl)-3,3,3-trifluoro-2-hydroxy-1-methyl-propyl]-phenoxy}-nicotinic acid] | 2.1
C[C@H](c1ccc(Oc2ccc(C(=O)O)c(Cl)c2)cc1Cl)[C@@](O)(c1ccc2c(c1)OCC(=O)N2C)C(F)(F)F (relative stereo) [Example 160, 2-Chloro-4-{3-chloro-4-[3,3,3-trifluoro-2-hydroxy-1-methyl-2-(4-methyl-3-oxo-3,4-dihydro-2H-benzo[1,4]oxazin-7-yl)-propyl]-phenoxy}-benzoic acid] | 1.3
C[C@@H](c1ccc(Oc2ccc(C(=O)O)c(Cl)c2)cc1Cl)[C@](O)(c1ccc2c(c1)N(C)S(=O)(=O)N2C)C(F)(F)F (relative stereo) [Example 161, 2-Chloro-4-{3-chloro-4-[2-(1,3-dimethyl-2,2-dioxo-2,3-dihydro-1H-2λ6-benzo[1,2,5]thiadiazol-5-yl)-3,3,3-trifluoro-2-hydroxy-1-methyl-propyl]-phenoxy}-benzoic acid] | 3.6
C[C@@H](c1ccc(-c2ccc(F)c(C(=O)O)c2)cc1Cl)[C@](O)(c1ccc2c(c1)N(C)S(=O)(=O)N2C)C(F)(F)F (relative stereo) [Example 162, 3′Chloro-4′-[2-(1,3-dimethyl-2,2-dioxo-2,3-dihydro-1H-2λ6-benzo[1,2,5]thiadiazol-5-yl)-3,3,3-trifluoro-2-hydroxy-1-methyl-propyl]-4-fluoro-biphenyl-3-carboxylic acid] | 10.8
C[C@@H](c1ccc(-c2ccc(C(=O)O)c(F)c2)cc1Cl)[C@](O)(c1ccc2c(c1)N(C)S(=O)(=O)N2C)C(F)(F)F (relative stereo) [Example 163, 3′-Chloro-4′-[2-(1,3-dimethyl-2,2-dioxo-2,3-dihydro-1H-2λ6-benzo[1,2,5]thiadiazol-5-yl)-3,3,3-trifluoro-2-hydroxy-1-methyl-propyl]-3-fluoro-biphenyl-4-carboxylic acid] | 35.1
